According to patent US20240132491A1, “INDOLINE COMPOUND” (MEDSHINE DISCOVERY INC., priority 2021, published 2024):

Tests used:
PD-1/PD-L1 = PD-1/PD-L1 (Homo sapiens (Human), UniProt Q9NZQ7); assay: NFAT assay: TCR Activitor/PD-L1 CHO cells co-cultured with PD-1/NFAT Reporter-Jurkat cells, Bright-Glo readout; format: cell-based; details: PD-L1 CHO / PD-1 NFAT Reporter-Jurkat co-culture, 5 hours
Protocol: PD1:PD-L1 TR-FRET assay kit, purchased from BPS Biosciences. Bright-Glo reagents purchased from Promega. Nivo multimode microplate reader (PerkinElmer)
TCR Activitor/PD-L1 CHO cells with a growth confluence of 80% were seeded at 35,000 cells per well in a plate and then incubated overnight in a 37° C. cell culture incubator. The compound to be tested was 5-fold diluted with a pipette to the 8th concentration, i.e., from 100 μmol to 1.28 nmol, with a DMSO concentration of 100%. Experiments were set up in duplicate wells. 147 μL of culture medium was added to an intermediate plate, and then 3 μL of gradient diluted compound per well was transferred to the intermediate plate according to the corresponding position, resulting in compound concentrations ranging from 2 μmol to 0.0256 nmol with a DMSO concentration of 2%. The T cell receptor/PD-L1 CHO cell supernatant was discarded, and 50 μL of compound working solution was added to each well, followed by incubation at 37° C. for 30 minutes. After incubation, 50 μL of a PD-1/NFAT Reporter-Jurkat cell suspension at a density of 4×10^5/mL was added to each well, and the plate was incubated at 37° C. for 5 hours. After the incubation, 100 μL of Bright-Glo was added to each well. After mixing, chemiluminescence signals were read using a Nivo the multimode microplate reader.
Raw data was converted into inhibition rate using the equation: (Sample−Min)/(Max−Min)*100%. The IC50 value could then be derived by performing a curve fit using a four-parameter logistic model (obtained using the “log(inhibitor) vs. response—Variable slope” mode in GraphPad Prism). The degree of inhibition of the compound on PD-1/PD-L1 was calculated using the equation (Max−Min)/Min. The higher the multiple, the stronger the inhibition of the PD-1/PD-L1 pathway.

[1] = In vivo pharmacokinetics study in mice; set-up: species or system C57BL/6 mice; details: male, C57BL/6, plasma, mouse
Protocol: Male C57BL/6 mice were used as test animals, and the drug concentration in plasma at different times after intragastric administration of the test compound was determined by LC/MS/MS method. The pharmacokinetic behavior of the test compounds in mice in vivo was studied to evaluate their pharmacokinetic characteristics.
Test animals: Healthy male C57BL/6 mice. Drug preparation: For the IV group, the vehicle was 5% DMSO+95% (20% hydroxypropyl-β-cyclodextrin); for the PO group, the vehicle was 5% DMSO+95% (20% HP-β-CD). Administration: The dosage of the test compound was 1 mg/kg for the IV group, and 10 mg/kg or 30 mg/kg for the PO group (note: the PO group was fasted overnight before administration).
Experimental operations: After administration, whole blood was collected for a certain period of time and prepared into plasma. The drug concentration was analyzed by the LC-MS/MS method, and the pharmacokinetic parameters were calculated using Phoenix WinNonlin software (Pharsight, USA)

MC38-hPD-L1 colon cancer = assay: Drug efficacy in MC38-hPD-L1 colon cancer model of B-hPD-L1 humanized mice; format: in vivo; details: compounds 20 to 50 mg/kg p.o. BID 21 days; atezolizumab 5 mg/kg i.p. TIW 10 times
Protocol: Mouse colon cancer MC38 cells were purchased from Shunran Shanghai Biotech Co., Ltd. Biocytogen (Beijing) Co. Ltd genetically modified the MC38 cells to express human PD-L1, and named it MC38-hPD-L1. These cells were adherent cells, cultured in a 37° C., 5% CO2 incubator. The culture medium composition was Dulbecco's Modified Eagle's Medium (DMEM) containing 10% inactivated fetal bovine serum.
MC38-hPD-L1 cells resuspended in PBS were inoculated subcutaneously into the right flank of B-hPD-L1 mice at a volume of 5×10^5 cells/0.1 mL per mouse. When the average tumor volume reached 150±50 mm^3, suitable mice were selected based on tumor volume and body weight, and were evenly distributed into each group, with 8 mice per group. Drug administration started on the day of grouping. The administration vehicle of the oral administration group was 5% DMSO+95% (20% HP-β-CD in water), while the administration vehicle of the intraperitoneal injection group was 0.9% sodium chloride injection.
Note: a. The administration volume was calculated based on the weight of the experimental animals at […]; b. The dose was 20 mg/kg within 5 days after grouping, and the dose was adjusted to 50 mg/kg starting from the 6th day; c. “p.o.” refers to oral administration, “i.p.” refers to intraperitoneal injection; d. “TIW” refers to three times a week, “BID” refers to twice a day.
Tumor growth inhibition (TGITV): TGITV (%)=[1−(Ti−T0)/(Vi−V0)][…]% (Ti: mean tumor volume of the treatment group on day i of administration, T0: mean tumor volume of the treatment group on day 0 of administration, Vi: mean tumor volume of the vehicle control group on day i of administration, V0: mean tumor volume of the vehicle control group on day 0 of administration).

Chain of PD-1/PD-L1 (Q9NZQ7 19-290): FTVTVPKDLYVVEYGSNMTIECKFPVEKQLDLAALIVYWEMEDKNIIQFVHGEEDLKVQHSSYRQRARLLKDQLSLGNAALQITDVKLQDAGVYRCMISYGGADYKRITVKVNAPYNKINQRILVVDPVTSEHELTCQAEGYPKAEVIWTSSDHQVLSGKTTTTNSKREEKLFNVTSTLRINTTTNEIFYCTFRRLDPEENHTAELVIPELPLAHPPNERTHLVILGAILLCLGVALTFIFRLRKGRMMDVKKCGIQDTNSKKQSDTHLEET

`COc1nc(-c2cccc(-c3cccc4c3CCN4c3nccc4cc(CN5CC[C@@H](O)C5)cnc34)c2Cl)ccc1CNC[C@@H]1CCC(=O)N1` [Compound 1] gave an IC50 (PD-1/PD-L1) of 35 nM, an AUC(0-inf) ([1]; po, p.o. 30 mg/kg) of 18.8 µM·h and an AUC(0-t) ([1]; po, p.o. 30 mg/kg) of 13.7 µM·h. It also gave a Cmax ([1]; po, p.o. 30 mg/kg) of 1.46 µM and a half-life ([1]; po, p.o. 30 mg/kg) of 12 h.
For `COc1nc(-c2cccc(-c3cccc4c3CCN4c3nccc4cc(CN5CC[C@@H](O)C5)cnc34)c2Cl)cnc1CNC[C@@H]1CCC(=O)N1` [Compound 2], the IC50 (PD-1/PD-L1) was 16 nM, the AUC(0-inf) ([1]; po, p.o. 30 mg/kg) was 23 µM·h and the AUC(0-t) ([1]; po, p.o. 30 mg/kg) was 20.6 µM·h. It also gave a Cmax ([1]; po, p.o. 30 mg/kg) of 1.97 µM and a half-life ([1]; po, p.o. 30 mg/kg) of 6.9 h.
With `COc1nc(-c2cccc(-c3cccc4c3CCN4c3nc(C(F)F)nc4cc(CN5CC[C@@H](O)C5)cnc34)c2Cl)ccc1CNC[C@@H]1CCC(=O)N1` [Compound 3] the IC50 (PD-1/PD-L1) was 4.7 nM.
With `COc1nc(-c2cccc(-c3cccc4c3CCN4c3nc(C(F)F)nc4cc(CN5CC[C@@H](O)C5)cnc34)c2Cl)cnc1CNC[C@@H]1CCC(=O)N1` [Compound 4] the “Tumor growth inhibition TGITV (%)” value (MC38-hPD-L1 colon cancer) was 86.1% and the IC50 (PD-1/PD-L1) was 4.5 nM.
Compound `N#CCOc1nc(-c2cccc(-c3cccc4c3CCN4c3nc(C(F)F)nc4cc(CN5CC[C@@H](O)C5)cnc34)c2Cl)ccc1CNC[C@@H]1CCC(=O)N1` [Compound 7] has an IC50 (PD-1/PD-L1) of 3 nM.
Work on `N#CCOc1nc(-c2cccc(-c3cccc4c3CCN4c3nc(C(F)F)nc4cc(CN5CC[C@@H](C(=O)O)C5)cnc34)c2Cl)ccc1CNC[C@@H]1CCC(=O)N1` [Compound 8] yielded an IC50 (PD-1/PD-L1) of 3.9 nM.
`COc1nc(-c2cccc(-c3cccc4c3CCN4c3nc(C(F)F)nc4cc(CN5CC[C@@H](C(=O)O)C5)cnc34)c2Cl)ccc1CNC[C@@H]1CCC(=O)N1` [Compound 9] gave an IC50 (PD-1/PD-L1) of 4.4 nM.
Compound `COc1nc(-c2cccc(-c3cccc4c3CCN4c3nc(C(F)F)nc4cc(CN5CC[C@@H](O)C5)cnc34)c2Cl)cnc1CN1CCC(C)(C(=O)O)C1` (stereo partly drawn) [Compound 11] has an IC50 (PD-1/PD-L1) of 24.6 nM.
Compound `COc1nc(-c2cccc(-c3cccc4c3CCN4c3nc(C(F)F)nc4cc(CN5CC[C@@H](O)C5)cnc34)c2Cl)cnc1CN1CC[C@@H](O)C1` [Compound 12] has an IC50 (PD-1/PD-L1) of 10.9 nM.
In the case of `COc1nc(-c2cccc(-c3cccc4c3CCN4c3nc(C(F)F)nc4cc(CN5CC[C@@H](O)C5)cnc34)c2Cl)cnc1CNC[C@H](C(=O)O)C(C)C` [Compound 13], the IC50 (PD-1/PD-L1) was 19 nM.
Compound `COc1nc(-c2cccc(-c3cccc4c3CCN4c3nc(C(F)F)nc4cc(CN5CC[C@@H](O)C5)cnc34)c2Cl)cnc1CNCC(C)(C)C(=O)O` [Compound 14] has an IC50 (PD-1/PD-L1) of 10.7 nM.
With `COc1nc(-c2cccc(-c3cccc4c3CCN4c3nc(C(F)F)nc4cc(CN5CC[C@@H](O)C5)cnc34)c2Cl)cnc1CN1CCC[C@H]1CC(=O)O` [Compound 15] the IC50 (PD-1/PD-L1) was 35.1 nM.
`COc1nc(-c2cccc(-c3cccc4c3CCN4c3nc(C(F)F)nc4cc(CN5CC[C@@H](O)C5)cnc34)c2Cl)ccc1CN1CCC(C)(C(=O)O)C1` (stereo partly drawn) [Compound 16] showed an IC50 (PD-1/PD-L1) of 9.2 nM.
Work on `N#CCOc1nc(-c2cccc(-c3cccc4c3CCN4c3nc(C(F)F)nc4cc(CN5CC[C@@H](O)C5)cnc34)c2Cl)ccc1CN1CC[C@@H](C(=O)O)C1` [Compound 17] yielded an IC50 (PD-1/PD-L1) of 7.5 nM.
Work on `COc1nc(-c2cccc(-c3cccc4c3CCN4c3nc(C(F)F)nc4cc(CN5CCC(C)(O)C5)cnc34)c2Cl)cnc1CNC[C@@H]1CCC(=O)N1` (stereo partly drawn) [Compound 18] yielded an IC50 (PD-1/PD-L1) of 3.5 nM.
Compound `COc1nc(-c2cccc(-c3cccc4c3CCN4c3nc(C(F)F)nc4cc(CN5CC[C@@H](O)C5)cnc34)c2C)cnc1CN1CC[C@@H](C(=O)O)C1` [Compound 19] has an IC50 (PD-1/PD-L1) of 30.7 nM.
For `COc1nc(-c2cccc(-c3cccc4c3CCN4c3nc(C(F)F)nc4cc(CN5CC[C@@H](O)C5)cnc34)c2C)cnc1CN1CCC(C)(C(=O)O)C1` (stereo partly drawn) [Compound 20], the IC50 (PD-1/PD-L1) was 42.7 nM.
With `COc1nc(-c2cccc(-c3cccc4c3CCN4c3nc(C(F)F)nc4cc(CN5C[C@@H](O)[C@H](O)C5)cnc34)c2Cl)cnc1CNC[C@@H]1COC(=O)N1` [Compound 22] the IC50 (PD-1/PD-L1) was 22.6 nM.
Work on `COc1nc(-c2cccc(-c3cccc4c3CCN4c3nc(C(F)F)nc4cc(CN5CC[C@@H](O)C5)cnc34)c2C)ccc1CN1CC[C@@](C)(C(=O)O)C1` [Compound 23] yielded an IC50 (PD-1/PD-L1) of 32.6 nM.
Compound `COc1nc(-c2cccc(-c3cccc4c3CCN4c3nc(C(F)F)nc4cc(CN5CC[C@@H](O)C5)cnc34)c2C)ccc1CN1CC[C@](C)(C(=O)O)C1` [Compound 24] has an IC50 (PD-1/PD-L1) of 32.6 nM.
For `Cc1c(-c2nc3cc(CN4CC[C@@H](C(=O)O)C4)cc(C#N)c3o2)cccc1-c1cccc2c1CCN2c1nc(C(F)F)nc2cc(CN3CC[C@@H](O)C3)cnc12` [Compound 27], the “Tumor growth inhibition TGITV (%)” value (MC38-hPD-L1 colon cancer) was 86.1%, the IC50 (PD-1/PD-L1) was 6.71 nM and the AUC(0-inf) ([1]; iv, i.v. 1 mg/kg) was 2.1 µM·h. The AUC(0-t) ([1]; iv, i.v. 1 mg/kg) was 1.65 µM·h, the clearance ([1]; iv, i.v. 1 mg/kg) was 0.633 L/h/kg and the half-life ([1]; iv, i.v. 1 mg/kg) was 12.5 h. The Vd ([1]; iv, i.v. 1 mg/kg, read-out: Vdss) was 8.97 L/kg, the bioavailability ([1]; oral, p.o. 10 mg/kg vs i.v. 1 mg/kg) was 46.3% and the AUC(0-inf) ([1]; po, p.o. 10 mg/kg) was 9.73 µM·h. The AUC(0-t) ([1]; po, p.o. 10 mg/kg) was 8.91 µM·h, the Cmax ([1]; po, p.o. 10 mg/kg) was 0.68 µM and the Tmax ([1]; po, p.o. 10 mg/kg) was 3.33 h. For the same compound, the half-life ([1]; po, p.o. 10 mg/kg) was 6.23 h.
With `N#Cc1cc(CN2CC[C@@H](C(=O)O)C2)cc2nc(-c3cccc(-c4cccc5c4CCN5c4nc(C(F)F)nc5cc(CN6CC[C@@H](O)C6)cnc45)c3Cl)oc12` [Compound 28] the IC50 (PD-1/PD-L1) was 4.67 nM.
Compound `Cc1c(-c2nc3cc(CN4CC[C@@H](C(=O)O)C4)cnc3o2)cccc1-c1cccc2c1CCN2c1nc(C(F)F)nc2cc(CN3CC[C@@H](O)C3)cnc12` [Compound 29] has an IC50 (PD-1/PD-L1) of 6.03 nM.
In the case of `Cc1c(-c2nc3cc(CN4CC[C@@](C)(C(=O)O)C4)cnc3o2)cccc1-c1cccc2c1CCN2c1nc(C(F)F)nc2cc(CN3CC[C@@H](O)C3)cnc12` [Compound 30], the IC50 (PD-1/PD-L1) was 14.5 nM.
Compound `Cc1c(-c2nc3cc(CN4CC[C@@H](O)C4)cc(C#N)c3o2)cccc1-c1cccc2c1CCN2c1nc(C(F)F)nc2cc(CN3CC[C@@H](C(=O)O)C3)cnc12` [Compound 32] has an IC50 (PD-1/PD-L1) of 8.98 nM.
For `Cc1c(-c2nc3cc(CN4CC[C@@](C)(O)C4)cc(C#N)c3o2)cccc1-c1cccc2c1CCN2c1nc(C(F)F)nc2cc(CN3CC[C@@H](C(=O)O)C3)cnc12` [Compound 33], the IC50 (PD-1/PD-L1) was 13.6 nM.
For “Atezolizumab: PD-L1 monoclonal antibody, approved for urothelial carcinoma and non-small cell lung cancer [reference compound]”, the “Tumor growth inhibition TGITV (%)” value (MC38-hPD-L1 colon cancer) was 88.4%.
